Measurements published in patent US6972287B1, “Method of inhibiting amyloid protein aggregation and imaging amyloid deposits” (Pfizer Inc., priority 1999, dated 2005).
“And” between values parts separate entries of the source, which are not always exact repeats. Equal entries are not always repeated. Structures can show the parent of a compound that is named as a salt.

Target: T1, Aβ (1-40) peptide (Homo sapiens, UniProt P05067)
T1 construct: 10 μL 0.5 mg/mL Aβ (1-40) peptide in 20% HFIP
Assay: BAPA (Beta-Amyloid Peptide Aggregation, pH 6.0, filtration)
Assay type: biochemical
Details: Aβ (1-40) 33 μM, pH 6.0, 2 to 4 hours at room temperature; replicate values; letter = synthetic lot
Experimental: Each 96-well plate can therefore accommodate 11 samples+1 Congo Red control (0.039-5 μM final in 2-fold steps). • 4) Seal the plate with aluminum film and incubate for 10 minutes on ice. • 5) Raise the temperature to 37° C. and incubate for 3 to 5 hours (depends on the lot of the peptide). • 6) Remove the aluminum film and add 250 μL/well of 5 μM thioflavin T (ThT) [T-3516, Sigma-Aldrich] in 50 mM glycine-NaOH, pH 8.5. […] The purpose of this assays is to provide a higher volume method of assaying the amount of beta amyloid aggregation using an endpoint assay based on filtration. In this assay, hexafluoroisopropanol (HFIP) is used to break down the initial amyloid peptide to a monomer state and use a concentration of 33 μM which is high enough so that aggregation will occur at pH 6.0 in several hours. Methods: […] Then, we incubate for 2 to 4 hours at room temperature. […] We wash the filter plate with 100 μL of the same phosphate buffer. Aggregation was detected on a Microbeta counter after impregnating the filters with Meltilex (1450-441) and is corrected for background.

T1 sequence (P05067 672-711 limits assumed): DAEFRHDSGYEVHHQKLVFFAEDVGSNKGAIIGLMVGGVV

Q: `Cc1cc(-c2cc(Br)cc(Br)c2)ccc1Nc1ccccc1C(=O)O` [Example 84, 2-(3′,5′-Dibromo-3-methyl-biphenyl-4-ylamino)-benzoic acid] was tested. Which IC50 did it give?
A: 5 µM and 21 µM

Q: With `Cc1cc(-c2ccc3c(c2)OCO3)ccc1Nc1ccccc1C(=O)O` [Example 85, 2-(4-1,3-Benzodioxol-5-yl-2-methyl-phenylamino)-benzoic acid] as the compound, how does the IC50 read?
A: 8 µM and 77 µM and 45 µM

Q: For `Cc1ccc(CCc2ccc(Nc3ccc([N+](=O)[O-])cc3C(=O)O)cc2)cc1C` [Example 61, 2-{4-[2-(3,4-Dimethyl-phenyl)-ethyl]-phenylamino}-5-nitro-benzoic acid], which IC50 is on record?
A: 13 µM

Q: With `O=C(O)c1ccccc1Nc1ccc(CCc2ccc(Cl)c(Cl)c2)cc1` [Example 119, 2-{4-[2-(3,4-Dichloro-phenyl)-ethyl]-phenylamino}-benzoic acid calcium salt (1:1)] as the compound, how does the IC50 read?
A: > 60 µM

Q: Which IC50 does the source give for `O=C(O)c1ccccc1Nc1ccc(-c2ccc(F)c(F)c2)c(Cl)c1` [Example 87, 2-(2-Chloro-3′,4′-difluoro-biphenyl-4-ylamino)-benzoic acid] here?
A: > 10 µM and 15 µM and 32 µM

Q: How did the IC50 turn out when `O=C(O)c1ccccc1Nc1ccc(-c2ccc(Cl)cc2Cl)c(Cl)c1` [Example 86, 2-(2,2′,4′-Trichloro-biphenyl-4-ylamino)-benzoic acid] was run?
A: > 10 µM and 89 µM and 37 µM

Q: Which IC50 does the source give for “2-{4-[2-(3,4-Dichloro-phenyl)-ethyl]-phenylamino}-benzoate-2-hydroxy-1,1-bis hydroxymethyl-ethyl-ammonium [Example 120]” here?
A: > 60 µM

Q: For `Cc1cc(-c2cc(Cl)cc(Cl)c2)ccc1Nc1ccccc1C(=O)O` [Example 83, 2-(3′,5′-Dichloro-3-methyl-biphenyl-4-ylamino)-benzoic acid], which IC50 is on record?
A: 9 µM and 47 µM and 29 µM

Q: For `CCN(CC)c1ccc(CCCc2ccc(Nc3ccccc3C(=O)O)cc2)cc1` [Example 19, 2-{4-[3-(4-Diethylaminophenyl)propyl]phenylamino}benzoic acid], which IC50 is on record?
A: > 60 µM and 43 µM

Q: Which IC50 does the source give for `O=C(O)c1ccccc1Nc1ccc(-c2cccc(Br)c2)c(Cl)c1` [Example 88, 2-(3′-Bromo-2-chloro-biphenyl-4-ylamino)-benzoic acid] here?
A: > 10 µM and 37 µM and 27 µM

Q: How did the IC50 turn out when `O=C(O)c1ccccc1Nc1ccc(CCc2ccc(Cl)c(Cl)c2)cc1` [Example 1, 2-{4-[2-(3,4-Dichlorophenyl)ethyl]phenylamino}-benzoic acid] was run?
A: > 60 µM and 11 µM and > 100 µM and 86 µM

Target: T2, Aβ (1-42) (Homo sapiens, UniProt P05067)
T2 construct: Required Aβ (1-42) (California Peptide) was dried from its hexafluoroisopropanol (HFIP) stock solution; purchased California Peptide
Assay: BATYM assay (Aβ (1-42) aggregation, Thioflavin T fluorescence)
Assay type: biochemical
Details: Aβ 1-42 final concentration 100 μM, 37° C., 1 day, letter = synthetic lot
Experimental: Required Aβ (1-42) (California Peptide) was dried from its hexafluoroisopropanol (HFIP) stock solution. The Aβ (1-42) was dissolved in dimethylsulfoxide (DMSO) and then mixed with phosphate buffered saline (PBS) (pH 7.4). The mixed Aβ (1-42) solution was filtered with a 0.2 μm Omnipore membrane syringe filter Millipore, Bedford, Mass.). The compound to be tested in DMSO (50 times concentrate) was put into each well (0.5 μL/well) of a 96-well plate. The Aβ (1-42) solution was added into each well (24.5 μL/well). The plate was centrifuged at 1,000 g for 5 minutes and incubated at 37° C. for 1 day (Aβ 1-42; final concentration 100 μM).
After incubation Thioflavin T (ThT) (30 μM) solution in glycine-NaOH buffer (pH 8.5, 50 mM) was added into each well (250 μL/well), fluorescence was measured (ex=440/20 nm, em=485/20 nm) using a fluorescence plate reader. The inhibitory activity was calculated as the reduction of fluorescence with the following formula: Inhibition (%)={(F(Aβ)−F(Aβ+compound)}/{F(Aβ)−[…]}×100
The IC50s were calculated by a curve fitting program using the following equation. The data were obtained from two different experiments in triplicate.
x=Concentration of tested compound (M),

T2 sequence (P05067 672-713 limits assumed): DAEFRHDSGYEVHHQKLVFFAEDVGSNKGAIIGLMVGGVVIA

Q: Which IC50 does the source give for `Cc1ccc(CCc2ccc(Nc3ccc([N+](=O)[O-])cc3C(=O)O)cc2)cc1C` [Example 61, 2-{4-[2-(3,4-Dimethyl-phenyl)-ethyl]-phenylamino}-5-nitro-benzoic acid] here?
A: 12 µM

Q: How did the IC50 turn out when `CCN(CC)c1ccc(CCCc2ccc(Nc3ccccc3C(=O)O)cc2)cc1` [Example 19, 2-{4-[3-(4-Diethylaminophenyl)propyl]phenylamino}benzoic acid] was run?
A: 31 µM and 34 µM

Q: `O=C(O)c1ccccc1Nc1ccc(CCc2ccc(Cl)c(Cl)c2)cc1` [Example 1, 2-{4-[2-(3,4-Dichlorophenyl)ethyl]phenylamino}-benzoic acid] was tested. Which IC50 did it give?
A: > 60 µM and 50 µM and 58.8 µM and 57.8 µM

Target: T3, Aβ(1-40) (Homo sapiens, UniProt P05067)
T3 construct: […]; purchased Bachem, Torrance, Calif
Assay: BASST (Beta-Amyloid Self-Seeding, Thioflavin T), inhibitors of self-seeded amyloid fibril growth
Assay type: biochemical
Details: 30 μM soluble Aβ(1-40), 37° C., 3 to 5 hours, thioflavin T fluorescence; replicate values; letter = synthetic lot; read-out: BASST (IC50 = μM)
Experimental: (§1) An assay for inhibitors of self-seeded amyloid fibril growth
Assay Buffer—50 mM sodium phosphate, pH 7.5, 100 mM NaCl, 0.02% NaN3, 1 M urea (filter and store at 4° C.)
(§2) Typically, the solution should be stored until no lag phase is seen in the assay.
The following are the amounts of the components of the reaction mixture that result in each of the 50 assay wells:
• 1) Prepare the reaction mix above by mixing the components and storing on ice. • 2) Pipet 14.5 μL of reaction mixture into each of 50 wells of a polystyrene U-bottom 96-well microtiter plate (Corning 25881-96) on ice. • 3) Add 1.7 μL of diluted compound to be tested to each well in a column of eight, including solvent control. Serial 3-fold dilutions from 1 mM (100 μM final) in assay buffer−urea=7 dilutions+zero. Each 96-well plate can therefore accommodate 11 samples+1 Congo Red control (0.039-5 μM final in 2-fold steps). • 4) Seal the plate with aluminum film and incubate for 10 minutes on ice. • 5) Raise the temperature to 37° C. and incubate for 3 to 5 hours (depends on the lot of the peptide). • 6) Remove the aluminum film and add 250 μL/well of 5 μM thioflavin T (ThT) [T-3516, Sigma-Aldrich] in 50 mM glycine-NaOH, pH 8.5. Read fluorescence on a plate reader (ex=440 nm/20 nm; em=485 nm/20 nm) within 5 minutes. BAPA (Beta-Amyloid Peptide Aggregation)

T3 sequence (P05067 672-711 limits assumed): as the sequence (P05067 672-711 limits assumed) above

Q: `Cc1cc(-c2cc(Br)cc(Br)c2)ccc1Nc1ccccc1C(=O)O` [Example 84, 2-(3′,5′-Dibromo-3-methyl-biphenyl-4-ylamino)-benzoic acid] was tested. Which IC50 did it give?
A: > 100 µM

Q: For `Cc1cc(-c2ccc3c(c2)OCO3)ccc1Nc1ccccc1C(=O)O` [Example 85, 2-(4-1,3-Benzodioxol-5-yl-2-methyl-phenylamino)-benzoic acid], which IC50 is on record?
A: 18 µM

Q: How did the IC50 turn out when `O=C(O)c1ccccc1Nc1ccc(-c2ccc(F)c(F)c2)c(Cl)c1` [Example 87, 2-(2-Chloro-3′,4′-difluoro-biphenyl-4-ylamino)-benzoic acid] was run?
A: 50 µM

Q: With `O=C(O)c1ccccc1Nc1ccc(-c2ccc(Cl)cc2Cl)c(Cl)c1` [Example 86, 2-(2,2′,4′-Trichloro-biphenyl-4-ylamino)-benzoic acid] as the compound, how does the IC50 read?
A: 18 µM

Q: `Cc1cc(-c2cc(Cl)cc(Cl)c2)ccc1Nc1ccccc1C(=O)O` [Example 83, 2-(3′,5′-Dichloro-3-methyl-biphenyl-4-ylamino)-benzoic acid] was tested. Which IC50 did it give?
A: > 100 µM

Q: With `O=C(O)c1ccccc1Nc1ccc(-c2cccc(Br)c2)c(Cl)c1` [Example 88, 2-(3′-Bromo-2-chloro-biphenyl-4-ylamino)-benzoic acid] as the compound, how does the IC50 read?
A: 10 µM

Same assay, conditions: read-out: BASST (IC50 = μM)

Q: Which IC50 does the source give for `O=C(O)c1ccccc1Nc1ccc(CCc2ccc(Cl)c(Cl)c2)cc1` [Example 119, 2-{4-[2-(3,4-Dichloro-phenyl)-ethyl]-phenylamino}-benzoic acid calcium salt (1:1)] here?
A: 3 µM

Q: With “2-{4-[2-(3,4-Dichloro-phenyl)-ethyl]-phenylamino}-benzoate-2-hydroxy-1,1-bis hydroxymethyl-ethyl-ammonium [Example 120]” as the compound, how does the IC50 read?
A: 3 µM

Target: T3, Aβ(1-40)
Assay: BASSR (Beta-Amyloid Self-Seeding Radioassay), inhibitors of self-seeded amyloid fibril growth
Assay type: biochemical
Details: not given
Experimental: BASSR (Beta-Amyloid Self-Seeding Radioassay)
as §1
Assay Buffer—50 mM sodium phosphate, pH 7.5, 100 mM NaCl, 0.02% NaN3, 1 M urea (filter and store at 4° C.).
as §2
^125I-labeled Aβ(1-40)—150K-350K cpm/μL in 100% acetonitrile—0.1% trifluoroacetic acid (TFA)—1% β-mercaptoethanol (aliquots stored at −20° C.). ^125I-labeled Aβ(1-40) can be made in accordance with the procedure set forth by H. LeVine, III in Neurobiol. Aging, 16, 755, (1995), which is hereby incorporated by reference, or this reagent may be purchased from Amersham, Arlington Heights, Ill.
The following are the amounts of the components of the reaction mixture sufficient for 50 assay wells:
• 1) Prepare reaction mixture above by mixing components and storing on ice. • 2) Pipet 14.5 μL of reaction mixture into each of 50 wells on a polypropylene U-bottom 96-well microtiter plate on ice. (Costar 3794). • 3) Add 1.7 μL of diluted compound to be tested to each well in a column of eight, including solvent control. Serial 3-fold dilutions from 1 mM (100 μM final) in assay buffer−urea=7 dilutions+zero. Each 96-well plate can therefore accommodate 11 samples+1 Congo Red control (0.039-5 μM final in 2-fold steps). • 4) Seal the plate with aluminum film (Beckman 538619) and incubate for 10 minutes on ice. • 5) Raise the temperature to 37° C. and incubate for 3 to 5 hours (depending on the lot of the peptide). • 6) Remove the aluminum film and add 200 μL/well of ice cold assay buffer with urea, collecting the radiolabeled fibrils by vacuum filtration through 0.2 μm pore size GVWP filters in 96-well plates (Millipore MAGV N22, Bedford, Mass.). Determine the radioactivity of the filters using standard methods well-known to those skilled in the art. BASST (Beta-Amyloid Self-Seeding, Thioflavin T)

Q: For “2-{4-[2-(3,4-Dichloro-phenyl)-ethyl]-phenylamino}-benzoate-2-hydroxy-1,1-bis hydroxymethyl-ethyl-ammonium [Example 120]”, which IC50 is on record?
A: > 100 µM

Same assay, conditions: 30 μM soluble Aβ(1-40) + 125I-labeled Aβ(1-40), 37° C., 3 to 5 hours; replicate values; letter = synthetic lot; ppt = precipitate; V-shaped = inhibition followed by precipitation

Q: For `Cc1cc(-c2cc(Br)cc(Br)c2)ccc1Nc1ccccc1C(=O)O` [Example 84, 2-(3′,5′-Dibromo-3-methyl-biphenyl-4-ylamino)-benzoic acid], which IC50 is on record?
A: > 100 µM

Q: How did the IC50 turn out when `Cc1cc(-c2ccc3c(c2)OCO3)ccc1Nc1ccccc1C(=O)O` [Example 85, 2-(4-1,3-Benzodioxol-5-yl-2-methyl-phenylamino)-benzoic acid] was run?
A: > 100 µM

Q: With `O=C(O)c1ccccc1Nc1ccc(CCc2ccc(Cl)c(Cl)c2)cc1` [Example 119, 2-{4-[2-(3,4-Dichloro-phenyl)-ethyl]-phenylamino}-benzoic acid calcium salt (1:1)] as the compound, how does the IC50 read?
A: > 100 µM

Q: Which IC50 does the source give for `O=C(O)c1ccccc1Nc1ccc(-c2ccc(F)c(F)c2)c(Cl)c1` [Example 87, 2-(2-Chloro-3′,4′-difluoro-biphenyl-4-ylamino)-benzoic acid] here?
A: > 100 µM

Q: For `O=C(O)c1ccccc1Nc1ccc(-c2ccc(Cl)cc2Cl)c(Cl)c1` [Example 86, 2-(2,2′,4′-Trichloro-biphenyl-4-ylamino)-benzoic acid], which IC50 is on record?
A: 40 µM

Q: For `Cc1cc(-c2cc(Cl)cc(Cl)c2)ccc1Nc1ccccc1C(=O)O` [Example 83, 2-(3′,5′-Dichloro-3-methyl-biphenyl-4-ylamino)-benzoic acid], which IC50 is on record?
A: > 100 µM

Q: How did the IC50 turn out when `O=C(O)c1ccccc1Nc1ccc(-c2cccc(Br)c2)c(Cl)c1` [Example 88, 2-(3′-Bromo-2-chloro-biphenyl-4-ylamino)-benzoic acid] was run?
A: > 100 µM

Q: Which IC50 does the source give for `O=C(O)c1ccccc1Nc1ccc(CCc2ccc(Cl)c(Cl)c2)cc1` [Example 1, 2-{4-[2-(3,4-Dichlorophenyl)ethyl]phenylamino}-benzoic acid] here?
A: > 100 µM (5×) and 52 µM and 10 µM
